From patent US9802899B2, “Heterocyclic compounds as pesticides” (BAYER CROPSCIENCE AG, priority 2012, dated 2017)

Experiment: Determination of the log P values by HPLC (formic acid method)
Type: physicochemical
Settings: reversed-phase HPLC column (C 18), reversed-phase column (C 18), acidic range (pH 3.4), 55° C.
Method: 1) Description of Method for Determination of the Log P Values (Formic Acid Method)
Eluents for determination in the acidic range (pH 3.4):
Eluent A: acetonitrile+1 ml of formic acid/liter. Eluent B: water+0.9 ml of formic acid/liter.
The lambda max values were determined in the maxima of the chromatographic signals using the UV spectra from 200 nm to 400 nm.
Work on `Nc1nn(-c2ncc(F)cc2F)c2ccc(F)cc12` [1-(3,5-Difluoropyridin-2-yl)-5-fluoro-1H-indazole-3-amine] yielded a chromatographic logP of 2.09. For `Fc1cccc(F)c1-n1cccc1` [Ex. 46-I, 1-(2,6-Difluorophenyl)-1H-pyrrole], the chromatographic logP was 2.98. Work on `N#Cc1cc(F)cc(F)c1-n1ccc(NC(=O)c2ccccc2C(F)(F)F)n1` [Compound I-1-393, N-[1-(2-Cyano-4,6-difluorophenyl)-1H-pyrazol-3-yl]-2-(trifluoromethyl)benzamide] yielded a chromatographic logP of 2.65. Work on `N#Cc1c(-n2ccc(NC(=O)c3ccccc3C(F)(F)F)n2)ccnc1Cl` [Compound I-1-585, N-[1-(2-Chloro-3-cyanopyridin-4-yl)-1H-pyrazol-3-yl]-2-(trifluoromethyl)benzamide] yielded a chromatographic logP of 2.67. Work on `O=C(O)c1ccccc1C(=O)Nc1ccn(-c2c(F)cc([N+](=O)[O-])cc2F)n1` [2-{[1-(2,6-Difluoro-4-nitrophenyl)-1H-pyrazol-3-yl]carbamoyl}benzoic acid] yielded a chromatographic logP of 1.85. In the case of `Nc1ccn(-c2nccnc2F)n1` [1-(3-Fluoropyrazin-2-yl)-1H-pyrazole-3-amine], the chromatographic logP was 0.49. Work on `Cc1cc(C(F)(F)F)c(C#N)c(-n2ccc(NC(=O)c3ccccc3C(F)(F)F)n2)n1` [Compound I-1-571, N-{1-[3-Cyano-6-methyl-4-(trifluoromethyl)pyridin-2-yl]-1H-pyrazol-3-yl}-2-(trifluoromethyl)benzamide] yielded a chromatographic logP of 3.49. In the case of `N#Cc1c(Cl)ccnc1-n1ccc(NC(=O)c2ccccc2C(F)(F)F)n1` [Compound I-1-586, N-[1-(4-Chloro-3-cyanopyridin-2-yl)-1H-pyrazol-3-yl]-2-(trifluoromethyl)benzamide], the chromatographic logP was 2.67. Work on `CC(=O)Nc1cc(F)c(-n2ccc(NC(=O)c3ccccc3C(F)(F)F)n2)c(F)c1` [Compound I-1-583, N-[1-(4-Acetamido-2,6-difluorophenyl)-1H-pyrazol-3-yl]-2-(trifluoromethyl)benzamide] yielded a chromatographic logP of 2.28.

Same assay, conditions: reversed-phase column (C 18), acidic range (pH 3.4), 55° C.
With `O=C(Nc1ccn(-c2c(Cl)cccc2Cl)n1)c1ccccc1Br` [Compound I-1-122] the “log P” value was 2.88. For `O=C(Nc1ccn(-c2ncc(F)cn2)n1)c1ccccc1Br` [Compound I-1-603], the “log P” value was 1.94. In the case of `CCc1nnccc1C(=O)Nc1ccn(-c2c(F)cccc2F)n1` [Compound I-1-98], the “log P” value was 1.73. In the case of `Cc1noc(C(F)(F)F)c1C(=O)Nc1ccn(-c2ncc(F)cc2F)n1` [Compound I-1-511], the “log P” value was 2.61. For `O=C(Nc1cnn(-c2ccccc2Cl)n1)c1cccnc1C(F)(F)F` [Compound I-2-4], the “log P” value was 2.54. For `Cc1cccc(C)c1C(=O)Nc1ccn(-c2c(F)cccc2F)n1` [Compound I-1-268], the “log P” value was 2.68. In the case of `CCc1nn(C)c(C(=O)Nc2ccn(-c3ncc(F)cc3F)n2)c1Cl` [Compound I-1-534], the “log P” value was 2.98. With `O=C(Nc1nn(-c2cc(F)cnc2F)c2ccc(F)cc12)c1ccccc1C(F)(F)F` [Compound I-5-7] the “log P” value was 3.39. In the case of `O=C(Nc1nn(-c2c(F)cccc2F)cc1I)c1ccccc1C(F)(F)F` [Compound I-1-257], the “log P” value was 2.86. In the case of `O=C(Nc1ccn(-c2c(F)cccc2F)n1)c1ccccc1SC(F)(F)F` [Compound I-1-88], the “log P” value was 3.15. For `O=C(Nc1ccn(-c2nccnc2F)n1)c1ccccc1C(F)(F)F` [Compound I-1-173], the “log P” value was 2.24. With `Cn1cccc1C(=O)Nc1ccn(-c2ncc(F)cc2F)n1` [Compound I-1-647] the “log P” value was 2.16. For `O=C(Nc1ccn(-c2cccc(F)c2F)n1)c1ccccc1Cl` [Compound I-1-66], the “log P” value was 3.02. For `CCC(C)n1ncc(I)c1C(=O)Nc1ccn(-c2ncc(F)cc2F)n1` (centres unmarked) [Compound I-1-456], the “log P” value was 3.28. In the case of `O=C(Nc1cnn(-c2ncccc2F)n1)c1ccccc1Cl` [Compound I-2-48], the “log P” value was 1.99. For `O=C(Nc1ccn(-c2c(F)cccc2F)n1)c1ccccc1-n1cncn1` [Compound I-1-89], the “log P” value was 1.66. With `Cc1cn(-c2ccccc2Cl)nc1NC(=O)c1cccnc1C(F)(F)F` [Compound I-1-348] the “log P” value was 2.53. With `CC(C)n1nc([N+](=O)[O-])c(Cl)c1C(=O)Nc1ccn(-c2ncc(F)cc2F)n1` [Compound I-1-528] the “log P” value was 3.11. In the case of `O=C(Nc1ccn(-c2ccccc2Cl)n1)c1sccc1I` [Compound I-1-379], the “log P” value was 3.34. For `Cn1ncc(I)c1C(=O)Nc1ccn(-c2c(F)cccc2F)n1` [Compound I-1-324], the “log P” value was 2.46. For `CN(C(=O)c1ccccc1C(F)(F)F)c1ccn(-c2ncc(F)cc2F)n1` [Compound I-1-467], the “log P” value was 2.96. With `O=C(Nc1nn(-c2ccccc2Br)nc1Cl)c1cccnc1Cl` [Compound I-2-31] the “log P” value was 2.46. For `O=C(Nc1ccn(-c2ccccc2Br)n1)c1ncccc1C(F)(F)F` [Compound I-1-54], the “log P” value was 2.99. For `O=C(Nc1ccn(-c2cncc(F)n2)n1)c1ccccc1C(F)(F)F` [Compound I-1-401], the “log P” value was 3.33. In the case of `COc1ccc(C(=O)Nc2ccn(-c3c(F)cccc3F)c2)c(Cl)c1` [Compound I-3-4], the “log P” value was 2.97. For `O=C(Nc1ccn(-c2c(F)cccc2F)n1)c1ccccc1C(F)F` [Compound I-1-74], the “log P” value was 2.73. In the case of `Cc1nn(-c2ccccc2Cl)nc1N(C(=O)c1ccccc1C(F)(F)F)C(=O)c1ccccc1C(F)(F)F` [Compound I-2-22], the “log P” value was 4.54. For `O=C(Nc1cnn(-c2c(F)cccc2F)n1)c1ccccc1Cl` [Compound I-2-38], the “log P” value was 2.66. For `CCc1nccnc1C(=O)Nc1ccn(-c2c(F)cccc2F)n1` [Compound I-1-285], the “log P” value was 2.65. In the case of `O=C(NC1=NN(c2c(F)cccc2F)CC1)c1ccccc1Cl` [Compound I-4-1], the “log P” value was 2.75. With `CS(=O)(=O)c1ccccc1-n1ccc(NC(=O)c2ccccc2I)n1` [Compound I-1-184] the “log P” value was 2.10. With `O=C(Nc1ccn(-c2ccccc2Cl)n1)c1ncccc1Cl` [Compound I-1-40] the “log P” value was 2.79. In the case of `O=C(Nc1ccn(-c2ncc(F)cc2F)n1)c1c(F)cccc1C(F)(F)F` [Compound I-1-491], the “log P” value was 2.57. In the case of `O=C(Nc1ccn(-c2cc(F)c(F)cc2F)n1)c1ccccc1Br` [Compound I-1-194], the “log P” value was 3.99. In the case of `O=C(Nc1nn(-c2ccccc2Cl)cc1Br)c1ccccc1I` [Compound I-1-366], the “log P” value was 3.12. In the case of `C=CCN(C(=O)c1ccccc1Cl)c1ccn(-c2ccccc2Cl)n1` [Compound I-1-26], the “log P” value was 3.56. With `Cc1cn(-c2ccccc2Cl)nc1NC(=O)c1ccccc1I` [Compound I-1-365] the “log P” value was 2.99. With `O=C(Nc1ccn(-c2nc(F)c(F)cc2F)n1)c1ncccc1C(F)(F)F` [Compound I-1-167] the “log P” value was 3.88. For `Cc1ccc(-n2ccc(NC(=O)c3ccccc3Br)n2)c(Cl)c1` [Compound I-1-338], the “log P” value was 3.23. For `O=C(Nc1ccn(-c2ncc(Cl)cc2Cl)n1)c1c(F)cccc1F` [Compound I-1-429], the “log P” value was 2.77. For `O=C(Nc1ccn(-c2ncccc2Br)n1)c1cccnc1C(F)(F)F` [Compound I-1-550], the “log P” value was 2.34. In the case of `CCn1ncc(I)c1C(=O)Nc1ccn(-c2c(F)cccc2F)n1` [Compound I-1-235], the “log P” value was 2.76. In the case of `O=C(Nc1ccn(-c2nc(F)c(F)cc2F)n1)c1ccccc1C(F)(F)F` [Compound I-1-162], the “log P” value was 2.78. For `O=C(c1cccnc1Cl)N(C(=O)c1cccnc1Cl)c1nn(-c2ccccc2Br)nc1Cl` [Compound I-2-23], the “log P” value was 3.64. In the case of `O=C(Nc1cnn(-c2ccccc2Cl)n1)c1cccnc1Cl` [Compound I-2-5], the “log P” value was 2.20. In the case of `O=C(Nc1ccn(-c2ncc(F)cn2)n1)c1cccnc1C(F)(F)F` [Compound I-1-601], the “log P” value was 1.73. For `Cc1cc(NC(=O)c2cccnc2Br)nn1-c1ccccc1Cl` [Compound I-1-359], the “log P” value was 1.85. With `O=C(Nc1ccn(-c2ncc(Cl)cc2F)n1)c1ccccc1I` [Compound I-1-593] the “log P” value was 2.89. For `O=C(Nc1ccn(-c2ccccc2Cl)n1)c1ccccc1C(F)F` [Compound I-1-13], the “log P” value was 3.03. For `O=C(Nc1ccn(-c2ncccc2C(F)(F)F)n1)c1ccccc1Cl` [Compound I-1-425], the “log P” value was 2.57. For `O=C(Nc1ccn(-c2ccccc2C(F)(F)F)n1)c1ccnn1C(F)F` [Compound I-1-7], the “log P” value was 3.05. With `Cn1nc(C(F)(F)F)c(C(=O)Nc2ccn(-c3ncc(F)cc3F)n2)c1C(F)(F)F` [Compound I-1-451] the “log P” value was 2.79. With `O=C(Nc1ccn(-c2c(F)cccc2F)n1)c1cccnc1C(F)(F)F` [Compound I-1-93] the “log P” value was 2.68. With `Cc1cccc(C)c1C(=O)Nc1ccn(-c2ccccc2Cl)n1` [Compound I-1-353] the “log P” value was 2.97. For `O=C(Nc1ccn(-c2ccccc2Cl)n1)c1cccnc1Br` [Compound I-1-358], the “log P” value was 2.22. For `Cn1cc(Br)c(C(=O)Nc2ccn(-c3c(F)cccc3F)n2)n1` [Compound I-1-301], the “log P” value was 2.37. In the case of `O=C(Nc1ccn(-c2ccccc2Cl)n1)c1sccc1Cl` [Compound I-1-377], the “log P” value was 3.29. With `O=C(Nc1ccn(-c2ccccc2[N+](=O)[O-])n1)c1ccccc1Cl` [Compound I-1-125] the “log P” value was 2.46. For `O=C(Nc1ccn(-c2ccc(Cl)cc2Cl)n1)c1ccccc1Br` [Compound I-1-199], the “log P” value was 3.44.
